# According to PMC12310023 (PLOS Neglected Tropical Diseases, 2025):
# System: NLuc-expressing C. parvum
# Assay: NLuc C. parvum IFNγ-KO mouse infection model, oocyst shedding
# Type: in vivo
compound,measurement,setting,value
CC(C)(CO)Cn1nc(-c2ccc3cc(OC4CC4)ccc3c2)c(C(N)=O)c1N [compound 1708],RLU standardized by fecal weight,"15 mg/kg x 3 days, group I, day 6 p.i., Cp Mouse Efficacy 2",251957 RLU
same,RLU standardized by fecal weight,"15 mg/kg x 3 days, group I, day 7 p.i., Cp Mouse Efficacy 2",85920 RLU
same,RLU standardized by fecal weight,"15 mg/kg x 3 days, group I, day 8 p.i., Cp Mouse Efficacy 2",79354 RLU
same,RLU standardized by fecal weight,"15 mg/kg x 3 days, group I, day 9 p.i., Cp Mouse Efficacy 2",5065 RLU
same,RLU standardized by fecal weight,"15 mg/kg x 3 days, group I, day 10 p.i., Cp Mouse Efficacy 2",1311 RLU
same,RLU standardized by fecal weight,"15 mg/kg x 3 days, group I, day 13 p.i., Cp Mouse Efficacy 2",474 RLU
same,RLU standardized by fecal weight,"15 mg/kg x 3 days, group I, day 15 p.i., Cp Mouse Efficacy 2",57 RLU
same,RLU standardized by fecal weight,"15 mg/kg x 3 days, group I, day 17 p.i., Cp Mouse Efficacy 2",57 RLU
same,RLU standardized by fecal weight,"15 mg/kg x 3 days, group I, day 20 p.i., Cp Mouse Efficacy 2",227 RLU
same,RLU Raw,"30 mg/kg QD x3, group G, Day 6, Cp Mouse Efficacy 1",1295216 RLU
same,RLU Raw,"30 mg/kg QD x3, group G, Day 7, Cp Mouse Efficacy 1",1222624 RLU
same,RLU Raw,"30 mg/kg QD x3, group G, Day 8, Cp Mouse Efficacy 1",619376 RLU
same,RLU Raw,"30 mg/kg QD x3, group G, Day 9, Cp Mouse Efficacy 1",66208 RLU
same,RLU Raw,"30 mg/kg QD x3, group G, Day 10, Cp Mouse Efficacy 1",17152 RLU
same,RLU Raw,"30 mg/kg QD x3, group G, Day 13, Cp Mouse Efficacy 1",2912 RLU
same,RLU Raw,"30 mg/kg QD x3, group G, Day 15, Cp Mouse Efficacy 1",4896 RLU
same,RLU Raw,"30 mg/kg QD x3, group G, Day 17, Cp Mouse Efficacy 1",1792 RLU
same,RLU Raw,"30 mg/kg QD x3, group G, Day 20, Cp Mouse Efficacy 1",7008 RLU
same,RLU standardized by fecal weight,"30 mg/kg QD x3, group G, day 6 p.i., Cp Mouse Efficacy 1",182425 RLU
same,RLU standardized by fecal weight,"30 mg/kg QD x3, group G, day 7 p.i., Cp Mouse Efficacy 1",166343 RLU
same,RLU standardized by fecal weight,"30 mg/kg QD x3, group G, day 8 p.i., Cp Mouse Efficacy 1",154844 RLU
same,RLU standardized by fecal weight,"30 mg/kg QD x3, group G, day 9 p.i., Cp Mouse Efficacy 1",14087 RLU
same,RLU standardized by fecal weight,"30 mg/kg QD x3, group G, day 10 p.i., Cp Mouse Efficacy 1",2907 RLU
same,RLU standardized by fecal weight,"30 mg/kg QD x3, group G, day 13 p.i., Cp Mouse Efficacy 1",391 RLU
same,RLU standardized by fecal weight,"30 mg/kg QD x3, group G, day 15 p.i., Cp Mouse Efficacy 1",401 RLU
same,RLU standardized by fecal weight,"30 mg/kg QD x3, group G, day 17 p.i., Cp Mouse Efficacy 1",224 RLU
same,RLU standardized by fecal weight,"30 mg/kg QD x3, group G, day 20 p.i., Cp Mouse Efficacy 1",904 RLU
same,RLU Raw,"30 mg/kg x 1 days, group F, Day 6, Cp Mouse Efficacy 2",255712 RLU
same,RLU Raw,"30 mg/kg x 1 days, group F, Day 7, Cp Mouse Efficacy 2",157696 RLU
same,RLU Raw,"30 mg/kg x 1 days, group F, Day 8, Cp Mouse Efficacy 2",335600 RLU
same,RLU Raw,"30 mg/kg x 1 days, group F, Day 9, Cp Mouse Efficacy 2",101760 RLU
same,RLU Raw,"30 mg/kg x 1 days, group F, Day 10, Cp Mouse Efficacy 2",181040 RLU
same,RLU Raw,"30 mg/kg x 1 days, group F, Day 13, Cp Mouse Efficacy 2",15056 RLU
same,RLU Raw,"30 mg/kg x 1 days, group F, Day 15, Cp Mouse Efficacy 2",22080 RLU
same,RLU Raw,"30 mg/kg x 1 days, group F, Day 17, Cp Mouse Efficacy 2",4144 RLU
same,RLU Raw,"30 mg/kg x 1 days, group F, Day 20, Cp Mouse Efficacy 2",2768 RLU
same,RLU standardized by fecal weight,"30 mg/kg x 1 days, group F, day 6 p.i., Cp Mouse Efficacy 2",39645 RLU
same,RLU standardized by fecal weight,"30 mg/kg x 1 days, group F, day 7 p.i., Cp Mouse Efficacy 2",24640 RLU
same,RLU standardized by fecal weight,"30 mg/kg x 1 days, group F, day 8 p.i., Cp Mouse Efficacy 2",55471 RLU
same,RLU standardized by fecal weight,"30 mg/kg x 1 days, group F, day 9 p.i., Cp Mouse Efficacy 2",16820 RLU
same,RLU standardized by fecal weight,"30 mg/kg x 1 days, group F, day 10 p.i., Cp Mouse Efficacy 2",20342 RLU
same,RLU standardized by fecal weight,"30 mg/kg x 1 days, group F, day 13 p.i., Cp Mouse Efficacy 2",2841 RLU
same,RLU standardized by fecal weight,"30 mg/kg x 1 days, group F, day 15 p.i., Cp Mouse Efficacy 2",3046 RLU
same,RLU standardized by fecal weight,"30 mg/kg x 1 days, group F, day 17 p.i., Cp Mouse Efficacy 2",975 RLU
same,RLU standardized by fecal weight,"30 mg/kg x 1 days, group F, day 20 p.i., Cp Mouse Efficacy 2",410 RLU
same,RLU Raw,"60 mg/kg QD x3, group F, Day 6, Cp Mouse Efficacy 1",2614768 RLU
same,RLU Raw,"60 mg/kg QD x3, group F, Day 7, Cp Mouse Efficacy 1",2391472 RLU
same,RLU Raw,"60 mg/kg QD x3, group F, Day 8, Cp Mouse Efficacy 1",411984 RLU
same,RLU Raw,"60 mg/kg QD x3, group F, Day 9, Cp Mouse Efficacy 1",18336 RLU
same,RLU Raw,"60 mg/kg QD x3, group F, Day 10, Cp Mouse Efficacy 1",2272 RLU
same,RLU Raw,"60 mg/kg QD x3, group F, Day 13, Cp Mouse Efficacy 1",576 RLU
same,RLU Raw,"60 mg/kg QD x3, group F, Day 15, Cp Mouse Efficacy 1",304 RLU
same,RLU Raw,"60 mg/kg QD x3, group F, Day 17, Cp Mouse Efficacy 1",144 RLU
same,RLU Raw,"60 mg/kg QD x3, group F, Day 20, Cp Mouse Efficacy 1",224 RLU
same,RLU standardized by fecal weight,"60 mg/kg QD x3, group F, day 6 p.i., Cp Mouse Efficacy 1",261477 RLU
same,RLU standardized by fecal weight,"60 mg/kg QD x3, group F, day 7 p.i., Cp Mouse Efficacy 1",201812 RLU
same,RLU standardized by fecal weight,"60 mg/kg QD x3, group F, day 8 p.i., Cp Mouse Efficacy 1",45026 RLU
same,RLU standardized by fecal weight,"60 mg/kg QD x3, group F, day 9 p.i., Cp Mouse Efficacy 1",3245 RLU
same,RLU standardized by fecal weight,"60 mg/kg QD x3, group F, day 10 p.i., Cp Mouse Efficacy 1",215 RLU
same,RLU standardized by fecal weight,"60 mg/kg QD x3, group F, day 13 p.i., Cp Mouse Efficacy 1",93 RLU
same,RLU standardized by fecal weight,"60 mg/kg QD x3, group F, day 15 p.i., Cp Mouse Efficacy 1",78 RLU
same,RLU standardized by fecal weight,"60 mg/kg QD x3, group F, day 17 p.i., Cp Mouse Efficacy 1",33 RLU
same,RLU standardized by fecal weight,"60 mg/kg QD x3, group F, day 20 p.i., Cp Mouse Efficacy 1",67 RLU
same,RLU Raw,"60 mg/kg x 1 day, group E, Day 6, Cp Mouse Efficacy 2",814080 RLU
same,RLU Raw,"60 mg/kg x 1 day, group E, Day 7, Cp Mouse Efficacy 2",339152 RLU
same,RLU Raw,"60 mg/kg x 1 day, group E, Day 8, Cp Mouse Efficacy 2",54176 RLU
same,RLU Raw,"60 mg/kg x 1 day, group E, Day 9, Cp Mouse Efficacy 2",52848 RLU
same,RLU Raw,"60 mg/kg x 1 day, group E, Day 10, Cp Mouse Efficacy 2",91232 RLU
same,RLU Raw,"60 mg/kg x 1 day, group E, Day 13, Cp Mouse Efficacy 2",5456 RLU
same,RLU Raw,"60 mg/kg x 1 day, group E, Day 15, Cp Mouse Efficacy 2",4592 RLU
same,RLU Raw,"60 mg/kg x 1 day, group E, Day 17, Cp Mouse Efficacy 2",5520 RLU
same,RLU Raw,"60 mg/kg x 1 day, group E, Day 20, Cp Mouse Efficacy 2",2336 RLU
same,RLU standardized by fecal weight,"60 mg/kg x 1 day, group E, day 6 p.i., Cp Mouse Efficacy 2",144085 RLU
same,RLU standardized by fecal weight,"60 mg/kg x 1 day, group E, day 7 p.i., Cp Mouse Efficacy 2",44625 RLU
same,RLU standardized by fecal weight,"60 mg/kg x 1 day, group E, day 8 p.i., Cp Mouse Efficacy 2",11405 RLU
same,RLU standardized by fecal weight,"60 mg/kg x 1 day, group E, day 9 p.i., Cp Mouse Efficacy 2",12435 RLU
same,RLU standardized by fecal weight,"60 mg/kg x 1 day, group E, day 10 p.i., Cp Mouse Efficacy 2",12329 RLU
same,RLU standardized by fecal weight,"60 mg/kg x 1 day, group E, day 13 p.i., Cp Mouse Efficacy 2",774 RLU
same,RLU standardized by fecal weight,"60 mg/kg x 1 day, group E, day 15 p.i., Cp Mouse Efficacy 2",399 RLU
same,RLU standardized by fecal weight,"60 mg/kg x 1 day, group E, day 17 p.i., Cp Mouse Efficacy 2",726 RLU
same,RLU standardized by fecal weight,"60 mg/kg x 1 day, group E, day 20 p.i., Cp Mouse Efficacy 2",525 RLU
